Patent EP0638553A1, “Carboxylic acid amides having a terminal carboxylic acid group as aggregation inhibiting drugs” (Dr. Karl Thomae GmbH, priority 1993, dated 1995)
Where a name gives a salt, the structure may show the parent alone.

How the values were obtained:
[1] = system: Thrombozytenaggregation; test: Collagen-induced platelet aggregation in platelet-rich plasma (method of Born and Cross); format: cell-based; conditions: human platelet-rich plasma, 10 min preincubation at 37°C, 50% change of optical density, read-out: Hemmung der Plättchenaggregation EC₅₀
From the text: 2. Antithrombotische Wirkung
Die Thrombozytenaggregation wird nach der Methode von Born und Cross (J. Physiol. 170, 397 (1964)) in plättchenreichem Plasma gesunder Versuchspersonen gemessen. Zur Gerinnungshemmung wird das Blut mit Natriumcitrat 3,14 % im Volumenverhältnis 1:10 versetzt.
Collagen-induzierte Aggregation
Der Verlauf der Abnahme der optischen Dichte der Plättchensuspension wird nach Zugabe der aggregationsauslösenden Substanz photometrisch gemessen und registriert. Aus dem Neigungswinkel der Dichtekurve wird auf die Aggregationsgeschwindigkeit geschlossen. Der Punkt der Kurve, bei dem die größte Lichtdurchlässigkeit vorliegt, dient zur Berechnung der "optical density".
Die Collagen-Menge wird möglichst gering gewählt, aber doch so, daß sich eine irreversibel verlaufende Reaktionskurve ergibt. Verwendet wird das handelsübliche Collagen der Firma Hormonchemie, München.
Vor der Collagen-Zugabe wird das Plasma jeweils 10 Minuten mit der Substanz bei 37°C inkubiert.
Aus den erhaltenen Meßzahlen wird graphisch eine EC₅₀ bestimmt, die sich auf eine 50%ige Änderung der "optical density" im Sinne einer Aggregationshemmung bezieht.

[2] = system: Humanthrombozyten; test: Inhibition of the binding of ³H-BIBU 52 to human platelets (fibrinogen binding test); conditions: displacement of ³H-BIBU 52 (5 nM) from human platelets in plasma, 20 min at room temperature; read-out: Fibrinogen-Bindungstest IC₅₀
From the text: 1. Hemmung der Bindung von ³H-BIBU 52 an Humanthrombozyten:
Eine Suspension von Humanthrombozyten in Plasma wird mit ³H-BIBU 52 [= (3S,5S)-5-[(4'-Amidino-4-biphenylyl)oxymethyl]-3-[(carboxyl)methyl]-2-pyrrolidinon[3-³H-4-biphenylyl]], das den literaturbekannten Liganden ¹²⁵J-Fibrinogen ersetzt, (siehe deutsche Patentanmeldung P 42 14 245.8 der gleichen Anmelderin vom 30. 04. 1992, internes Zeichen: Case 5/1093-FL) und verschiedenen Konzentrationen der zu testenden Substanz inkubiert. Der freie und gebundene Ligand wird durch Zentrifugation getrennt und durch Szintillationszählung quantitativ bestimmt. Aus den Meßwerten wird die Hemmung der ³H-BIBU 52-Bindung durch die Testsubstanz bestimmt.
Hierzu wird aus einer Antikubitalvene Spenderblut entnommen und mit Trinatriumzitrat antikoaguliert (Endkonzentration 13 mM). Das Blut wird 10 Minuten bei 170 x g zentrifugiert und das überstehende plättchenreiche Plasma (PRP) abgenommen. Das Restblut wird zur Gewinnung von Plasma noch einmal scharf abzentrifugiert. Das PRP wird mit autologem Plasma 1:10 verdünnt. 750 ml werden mit 50 ml physiologischer Kochsalzlösung, 100 ml Testsubstanzlösung, 50 ml ¹⁴C-Sucrose (3.700 Bq) und 50 ml ³H-BIBU 52 (Endkonzentration: 5 nM) bei Raumtemperatur 20 Minuten inkubiert. Zur Messung der unspezifischen Bindung wird anstelle der Testsubstanz 5 ml BIBU 52 (Endkonzentration: […]) eingesetzt. Die Proben werden 20 Sekunden bei 10000 x g zentrifugiert und der Überstand abgezogen. 100 ml hiervon werden zur Bestimmung des freien Liganden gemessen. Das Pellet wird in 500 ml 0,2N NaOH gelöst, 450 ml werden mit 2 ml Szintillator und 25 ml 5N HCl versetzt und gemessen. Das im Pellet noch verbliebene Restplasma wird aus dem ¹⁴C-Gehalt bestimmt, der gebundene Ligand aus der ³H-Messung. Nach Abzug der unspezifischen Bindung wird die Pelletaktivität gegen die Konzentration der Testsubstanz aufgetragen und die Konzentration für eine 50%ige Hemmung der Bindung ermittelt.

[3] = system: Maus; test: Tolerability after intravenous administration to the mouse; format: in vivo; conditions: 30 mg/kg intravenous, 3 animals tested

Compound	EC50 [1] [µM]	IC50 [2] [µM]	Mortality (verstorbene Tiere) [3]
O=C(N[C@H]1CC[C@H](C(=O)O)CC1)c1ccc(OCC23CCN(CC2)CC3)cc1 [Beispiel 3, trans-4-[4-[(4-Chinuclidinyl)-methyloxy]-benzoylamino]-cyclohexancarbonsäure-hydrochlorid]	0.36	0.085	keines der 3 getesteten Tiere verstarb
O=C(N[C@H]1CC[C@H](C(=O)O)CC1)N1CCC(OCC2CCNCC2)CC1 [3(17), trans-4-[[4-[(4-Piperidinyl)-methyloxy]-1-piperidinyl]-carbonylamino]-cyclohexancarbonsäure]	0.3	0.091	keines der 3 getesteten Tiere verstarb
O=C(O)CC1CCN(C(=O)c2ccc(NCC3CCNCC3)cc2)CC1 [3(8), 4-Carboxymethyl-1-[4-[[(4-piperidinyl)-methyl]-amino]-benzoyl]-piperidin-hydrochlorid]	5.8	6.4	–
O=C(N[C@H]1CC[C@H](C(=O)O)CC1)c1ccc(CCC23CCN(CC2)CC3)cc1 [1(2), trans-4-[4-[2-(4-Chinuclidinyl)-ethyl]-benzoylamino]-cyclohexancarbonsäure]	–	–	keines der 3 getesteten Tiere verstarb
O=C(N[C@H]1CC[C@H](C(=O)O)CC1)c1ccc(OCC2CCNCC2)cc1 [3(23), trans-4-[4-[(4-Piperidinyl)-methyloxy]-benzoylamino]-cyclohexancarbonsäure-hydrochlorid]	0.27	0.19	–
O=C(N[C@H]1CC[C@H](C(=O)O)CC1)c1cccc(OCC2CCNCC2)c1 [3(15), trans-4-[3-[(4-Piperidinyl)-methyloxy]-benzoylamino]-cyclohexancarbonsäure-hydrochlorid]	1.2	0.63	–
O=C(O)CC1CCN(C(=O)c2ccc(CCC34CCN(CC3)CC4)cc2)CC1 [1(1), 4-Carboxymethyl-1-[4-[2-(4-chinuclidinyl)-ethyl]-benzoyl]-piperidin]	0.61	0.36	–
NCC1CCc2cc(C(=O)N[C@H]3CC[C@H](CCC(=O)O)CC3)ccc2C1 (stereo partly drawn) [3(24), 3-[trans-4-[(2-Aminomethyl-1,2,3,4-tetrahydro-6-naphthyl)-carbonylamino]-cyclohexyl]-propionsäure-hydrochlorid]	4.41	1.5	–
COC(=O)[C@H]1CC[C@H](NC(=O)N2CCC(OCC3CCNCC3)CC2)CC1 [4(23), trans-4-[[4-[(4-Piperidinyl)-methyloxy]-1-piperidinyl]-carbonylamino]-cyclohexancarbonsäure-methylester-hydrochlorid]	0.37	0.18	keines der 3 getesteten Tiere verstarb

Second part, led by results:

EC50 [1] [µM]	IC50 [2] [µM]	Compound	Mortality (verstorbene Tiere) [3]
45	49	O=C(O)CCC1CCN(C(=O)c2ccc(NCC3CCNCC3)cc2)CC1 [3(7), 4-(2-Carboxy-ethyl)-1-[4-[[(4-piperidinyl)-methyl]-amino]-benzoyl]-piperidin-hydrochlorid]	–
1.2	–	NCCc1ccc(C(=O)N[C@H]2CC[C@H](CCC(=O)O)CC2)cc1 [3(32), trans-1-[4-(2-Amino-ethyl)-benzoylamino]-4-(2-carboxyethyl)-cyclohexan-hydrochlorid]	–
1.3	0.13	NC1(C(=O)O)CCC(NC(=O)N2CCC(OCC3CCNCC3)CC2)CC1 (stereo not drawn) [1(9), 1-Carboxy-cis-4-[[4-[(4-piperidinyl)-methyloxy]-1-piperidinyl]-carbonylamino]-cyclohexylamin]	–
0.97	0.13	NCCOc1ccc(C(=O)N[C@H]2CC[C@H](CCC(=O)O)CC2)cc1 [4(32)]	–
2.06	2.1	O=C(NC1CCNCC1)c1ccc(C(=O)N[C@H]2CC[C@H](C(=O)O)CC2)cc1 [3(4), trans-4-[4-[(4-Piperidinyl)-aminocarbonyl]-benzoylamino]-cyclohexancarbonsäure-hydrochlorid]	–
23	6.9	O=C(O)CN(CCNC(=O)N1CCC(OCC2CCNCC2)CC1)CC(=O)O [1(14), N-Carboxymethyl-N-[2-[[4-[(4-piperidinyl)-methyloxy]-1-piperidinyl]-carbonylamino]-ethyl]-glycin]	–
0.27	0.16	O=C(N[C@H]1CC[C@H](C(=O)O)CC1)N1CCC(COC2CCNCC2)CC1 [3(16), trans-4-[[4-[(4-Piperidinyl)-oxymethyl]-1-piperidinyl]-carbonylamino]-cyclohexancarbonsäure-hydrochlorid]	–
3.1	1.5	CCCCS(=O)(=O)NC1(C(=O)O)CCC(NC(=O)N2CCC(OCC3CCNCC3)CC2)CC1 (stereo not drawn) [1(7), N-[1-Carboxy-cis-4-[[4-[(4-piperidinyl)-methyloxy]-1-piperidinyl]-carbonylamino]-cyclohexyl]-n-butansulfonamid]	–
1.07	1.2	O=C(N[C@H]1CC[C@H](C(=O)O)CC1)c1ccc(CCc2ccncc2)cc1 [3(30), trans-4-[4-[2-(4-Pyridyl)-ethyl]-benzoylamino]-cyclohexan-carbonsäure-hydrochlorid]	–
3.2	2.3	O=C(N[C@H]1CC[C@H](C(=O)O)CC1)c1ccc(NC(=O)C2CCNCC2)cc1 [3(9), trans-4-[4-[(4-Piperidinyl)-carbonylamino]-benzoylamino]-cyclohexancarbonsäure-hydrochlorid]	–
3.37	0.84	NCCOc1ccc(C(=O)N[C@H]2CC[C@H](OCC(=O)O)CC2)cc1 [4(34)]	–
1.7	0.55	O=C(N[C@H]1CC[C@H](C(=O)O)CC1)c1cccc(CCC23CCN(CC2)CC3)c1 [Beispiel 1, trans-4-[3-[2-(4-Chinuclidinyl)-ethyl]-benzoylamino]-cyclohexancarbonsäure]	–
